Measured values reported in patent US20210323940A1 (OCEANS LTD., priority 2018, published 2021).

Legend:
Format in all cases: cell-based, human
[1] = system: MDA-MB-231 (mammary gland adenocarcinoma); test: CIMA assay (MTT, 72 h); conditions: MDA-MB
Method: Experimental: Stock solutions of the test compounds were prepared in dimethylsulfoxide (DMSO) at 10 mg/ml and stored at −20° C. until used. This preparation ensures that the DMSO content delivered to cells in culture never exceeds 1%. […] Cell proliferation was initially assessed using a standard colorimetric indicator of metabolic activity (CIMA) assay. In this assay, reduction of yellow tetrazolium salt (MTT) to purple formazan by mitochondrial reductases enzymes in viable cells were measured as change in absorbance (λ=500-600).
(§1) Seven human cell lines were evaluated: U373 (glioblastoma-astrocytoma), A549 (lung carcinoma), PC3 (prostate adenocarcinoma), THP1 (acute monocytic leukemia), MDA-MB-231 (mammary gland adenocarcinoma), SKOV3 (ovarian adenocarcinoma) and CCD1079Sk (normal skin fibroblast) cells.

[2] = system: U373 (glioblastoma-astrocytoma); test: CIMA assay (tetrazolium reduction, cell viability, 72 h); conditions: U373
Method: (§2) Prepared extracts were assessed following chronic exposure conditions in which cells were seeded at 2×10^3 cells/well (96 wells-plate) and incubated with test compounds for 72 h. Each compound was evaluated over a range of concentrations (0, 10, 25, 50 or 100 μg/ml). Cell proliferation was initially assessed using a standard colorimetric indicator of metabolic activity (CIMA) assay. In this assay, tetrazole reduction was evaluated as a measure of metabolic function that evaluates mitochondrial activity to determine the extent of cell proliferation within a culture. This assay is based on the reduction of yellow tetrazolium salt to purple formazan by mitochondrial reductases enzyme in viable cells, resulting in a color change that confers a change in absorbance. Seven human cell lines were selected for primary evaluation: U373 (glioblastoma-astrocytoma), A549 (lung carcinoma), THP-1 (acute monocytic leukemia), MCF7 (mammary gland adenocarcinoma), SKOV3 (ovarian adenocarcinoma), PC3 (prostate adenocarcinoma) and CCD1079SK (fibroblast, noncancerous but proliferating) (see FIG. 2 and Table 2). Results are expressed in Table 2 as % viability (means±standard deviation of three replicates), with LD50/IC50 values in Tables 3 and 6. […] The maximum DMSO concentration was 1% at 100 μg/ml with 5% SDS used as a known toxic inducer.
(§3) Experimental: Stock solutions of the test compounds were prepared in dimethylsulfoxide (DMSO) at 10 mg/ml and stored at −20° C. until used. This preparation ensures that the DMSO content delivered to cells in culture never exceeds 1%. Appropriate cells number, based on previous assays, were seeded in 96 well plate and incubated with test compounds (up to 8 log concentrations, 0 to 50 or 100 μg/ml) for 72 h. Cell proliferation was initially assessed using a standard colorimetric indicator of metabolic activity (CIMA) assay. In this assay, reduction of yellow tetrazolium salt (MTT) to purple formazan by mitochondrial reductases enzymes in viable cells were measured as change in absorbance (λ=500-600).
as §1

A549 (lung carcinoma) = test: as above; conditions: A549
Method: as §2, §3, §1

[3] = system: CCD1079SK (fibroblast, noncancerous but proliferating); test: as above; conditions: CCD
Method: as §2, §3, §1

[4] = system: PC3 (prostate adenocarcinoma); test: as above; conditions: PC3
Method: as §2, §3, §1

[5] = system: THP-1 (acute monocytic leukemia); test: as above; conditions: THP-1
Method: as §2, §3, §1

[6] = system: SKOV3 (ovarian adenocarcinoma); test: as above; conditions: SKOV
Method: as §2, §3, §1

## CCCCCCCCCCCCOS(=O)(=O)[O-].[Na+] [SDS, reference compound]
[1]; positive control, 250 ug/ml
  average cell viability: 14

## CCCCCC(O)C(O)/C=C/C1CCCCCCCC(=O)O1 (racemic) [compound (I), 12,13-dihydroxy-10-octadecen-9-olide]
[2]; 1 ug/mL
  fold change viability (AVG): 0.92
[2]; 10 ug/mL
  fold change viability (AVG): 0.86
[2]; 50 ug/mL
  fold change viability (AVG): 0.69
[2]; 100 ug/mL
  fold change viability (AVG): 0.03
A549 (lung carcinoma); 1 ug/mL
  fold change viability (AVG): 1.11
A549 (lung carcinoma); 10 ug/mL
  fold change viability (AVG): 1.09
A549 (lung carcinoma); 50 ug/mL
  fold change viability (AVG): 1.08
A549 (lung carcinoma); 100 ug/mL
  fold change viability (AVG): 0.72
[3]; 1 ug/mL
  fold change viability (AVG): 1.00
[3]; 10 ug/mL
  fold change viability (AVG): 0.92
[3]; 50 ug/mL
  fold change viability (AVG): 0.99
[3]; 100 ug/mL
  fold change viability (AVG): 0.18
[4]; 1 ug/mL
  fold change viability (AVG): 1.03
[4]; 10 ug/mL
  fold change viability (AVG): 0.96
[4]; 50 ug/mL
  fold change viability (AVG): 1.01
[4]; 100 ug/mL
  fold change viability (AVG): 0.19
[5]; 1 ug/mL
  fold change viability (AVG): 1.09
[5]; 10 ug/mL
  fold change viability (AVG): 0.95
[5]; 50 ug/mL
  fold change viability (AVG): 0.77
[5]; 100 ug/mL
  fold change viability (AVG): 0.50
[6]; 1 ug/mL
  fold change viability (AVG): 1.04
[6]; 10 ug/mL
  fold change viability (AVG): 1.05
[6]; 50 ug/mL
  fold change viability (AVG): 1.01
[6]; 100 ug/mL
  fold change viability (AVG): 0.92
[1]; 1 ug/mL
  fold change viability (AVG): 1.10
[1]; 10 ug/mL
  fold change viability (AVG): 1.05
[1]; 50 ug/mL
  fold change viability (AVG): 0.72
[1]; 100 ug/mL
  fold change viability (AVG): 0.21
